The compounds below were run against S. aureus GyrB ATPase (Staphylococcus aureus, UniProt P0A0K8) (assay: S. aureus (SAU) GyrB ATPase inhibition, malachite green phosphate detection (E. coli GyrA + S. aureus GyrB)). Details: compound concentration of 1.0 μM unless otherwise noted; average value where assay was carried out more than once; read-out: S. aureus (SAU) GyrB ATPase % Inhibition.
Type: biochemical
Experimental: Compounds were tested for inhibition of GyrB ATPase activity using an ammonium molybdate/malachite green-based phosphate detection assay (Lanzetta, P. A., L. J. Alvarez, P. S. Reinach, and O. A. Candia, 1979, 100: 95-97). Assays were performed in multiwell plates in 100 μl reactions containing: 50 mM Hepes buffer pH 7.5, 75 mM ammonium acetate, 8.0 mM magnesium chloride, 1.0 mM ethylenediaminetetraacetic acid, 5% glycerol, 2 mM 1,4-Dithio-DL-threitol, 400 nM bovine serum albumin, 5 μg/ml sheared salmon sperm DNA, 1.25 nM E. coli GyrA, 1.25 nM S. aureus GyrB, 500 μM ATP, and compound in dimethylsulfoxide. Reactions were quenched with 150 μl of ammonium molybdate/malachite green detection reagent containing 1.2 mM malachite green hydrochloride, 8.5 mM ammonium molybdate tetrahydrate, and 1 M hydrochloric acid. Plates were read in an absorbance plate reader at 650 nm and percent inhibition values were calculated using dimethylsulfoxide (2%)-containing reactions as 0% inhibition and novobiocin-containing (2 μM) reactions as 100% inhibition controls. Compound potency was based on IC50 measurements determined from reactions performed in the presence of 10 different compound concentrations.

S. aureus GyrB ATPase, sequence (P0A0K8 whole entry): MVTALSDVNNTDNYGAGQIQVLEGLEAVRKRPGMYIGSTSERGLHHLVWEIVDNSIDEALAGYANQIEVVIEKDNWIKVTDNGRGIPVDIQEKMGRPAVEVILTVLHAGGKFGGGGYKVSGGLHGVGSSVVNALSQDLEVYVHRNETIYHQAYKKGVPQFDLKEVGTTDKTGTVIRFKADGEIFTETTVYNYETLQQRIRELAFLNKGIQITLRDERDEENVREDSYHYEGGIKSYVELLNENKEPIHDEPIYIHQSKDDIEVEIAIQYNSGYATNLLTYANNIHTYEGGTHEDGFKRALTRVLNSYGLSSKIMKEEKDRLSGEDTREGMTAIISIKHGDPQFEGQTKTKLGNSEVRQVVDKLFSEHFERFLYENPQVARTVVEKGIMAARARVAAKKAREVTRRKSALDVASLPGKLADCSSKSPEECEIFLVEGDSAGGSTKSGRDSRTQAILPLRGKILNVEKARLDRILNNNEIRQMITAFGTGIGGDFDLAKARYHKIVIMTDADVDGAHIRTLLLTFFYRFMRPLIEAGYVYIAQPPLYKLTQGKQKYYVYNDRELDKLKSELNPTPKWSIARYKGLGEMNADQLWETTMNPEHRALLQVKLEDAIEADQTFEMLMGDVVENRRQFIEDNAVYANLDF
S. aureus GyrB ATPase, sequence (P0AES4 whole entry, further chain): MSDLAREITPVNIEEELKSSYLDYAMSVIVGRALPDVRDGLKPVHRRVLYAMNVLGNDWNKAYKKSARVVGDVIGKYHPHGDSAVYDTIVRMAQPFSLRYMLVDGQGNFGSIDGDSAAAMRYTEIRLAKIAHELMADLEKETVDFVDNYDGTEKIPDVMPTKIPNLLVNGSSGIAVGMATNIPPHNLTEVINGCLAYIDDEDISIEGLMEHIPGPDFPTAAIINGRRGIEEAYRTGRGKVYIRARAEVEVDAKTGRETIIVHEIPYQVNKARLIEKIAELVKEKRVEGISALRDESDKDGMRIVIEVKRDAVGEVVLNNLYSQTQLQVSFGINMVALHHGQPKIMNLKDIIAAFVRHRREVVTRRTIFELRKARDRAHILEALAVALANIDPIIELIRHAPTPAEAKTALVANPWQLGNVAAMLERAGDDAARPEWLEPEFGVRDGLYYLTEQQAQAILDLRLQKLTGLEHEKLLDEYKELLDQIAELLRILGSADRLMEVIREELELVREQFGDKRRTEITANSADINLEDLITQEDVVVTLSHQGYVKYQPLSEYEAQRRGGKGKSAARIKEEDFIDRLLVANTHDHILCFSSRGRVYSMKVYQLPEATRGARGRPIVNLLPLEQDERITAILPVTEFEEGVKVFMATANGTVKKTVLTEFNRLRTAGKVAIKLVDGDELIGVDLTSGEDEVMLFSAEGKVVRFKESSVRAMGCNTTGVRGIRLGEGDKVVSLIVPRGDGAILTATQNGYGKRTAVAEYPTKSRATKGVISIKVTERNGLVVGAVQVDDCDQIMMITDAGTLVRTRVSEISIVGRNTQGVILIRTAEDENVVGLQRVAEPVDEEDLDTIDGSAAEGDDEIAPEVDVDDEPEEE

Going from `CCNC(=O)Nc1cc(-c2nc(C(F)(F)F)cs2)c(-c2nc(-c3ncccn3)c(-c3n[nH]c(=O)o3)s2)cn1` [Example 36, 1-ethyl-3-(5-(5-(5-oxo-4,5-dihydro-1,3,4-oxadiazol-2-yl)-4-(pyrimidin-2-yl)thiazol-2-yl)-4-(4-(trifluoromethyl)thiazol-2-yl)pyridin-2-yl)urea] to `CCNC(=O)Nc1cc(-c2nc(C(F)(F)F)cs2)c(-c2ncc(-c3n[nH]c(=O)o3)s2)cn1` [Example 9, 1-ethyl-3-(5-(5-(5-oxo-4,5-dihydro-1,3,4-oxadiazol-2-yl)thiazol-2-yl)-4-(4-(trifluoromethyl)thiazol-2-yl)pyridin-2-yl)urea], the inhibition at 1 µM falls from 107% to 106%.

Going from `CCNC(=O)Nc1cc(-c2nc(C(F)(F)F)cs2)c(-c2cncc(-c3nc(C)n[nH]3)c2)cn1` [Example 7, 1-Ethyl-3-(5′-(3-methyl-1H-1,2,4-triazol-5-yl)-4-(4-(trifluoromethyl)thiazol-2-yl)-3,3′-bipyridin-6-yl)urea] to `CCNC(=O)Nc1cc(-c2nc(C(F)(F)F)cs2)c(-c2cncc(-c3nnc(C(F)F)[nH]3)c2)cn1` [Example 256, 1-(5′-(5-(difluoromethyl)-4H-1,2,4-triazol-3-yl)-4-(4-(trifluoromethyl)thiazol-2-yl)-3,3′-bipyridin-6-yl)-3-ethylurea], the inhibition at 1 µM rises from 90% to 103%.

Going from `CCNC(=O)Nc1cc(-c2nc(C3CC3)cs2)c(-c2cncc(-c3n[nH]c(=O)o3)c2)cn1` [Example 210] to `CCCNC(=O)Nc1cc(-c2nc(C(F)(F)F)cs2)c(-c2cncc(-c3n[nH]c(=O)o3)c2)cn1` [Example 44, 1-(5′-(5-oxo-4,5-dihydro-1,3,4-oxadiazol-2-yl)-4-(4-(trifluoromethyl)thiazol-2-yl)-3,3′-bipyridin-6-yl)-3-propylurea], the inhibition at 1 µM rises from 65% to 96%.

Going from `CCNC(=O)Nc1cc(-c2nc(-c3cnn(C)c3)cs2)c(-c2cc(-c3n[nH]c(=O)o3)cnc2OC2CCOCC2)cn1` [Example 222] to `CCNC(=O)Nc1cc(-c2nc(-c3cnn(C)c3)cs2)c(-c2cnc(OC)c(-c3n[nH]c(=O)o3)c2)cn1` [Example 205], the inhibition at 1 µM rises from 97% to 100%.

First: CCNC(=O)Nc1cc(-n2ccc(C(F)(F)F)n2)c(-c2cncc(-c3nnc([C@@H](N)C(C)C)o3)c2)cn1 [Example 165]
Second: CCNC(=O)Nc1cc(-c2nc(C(F)(F)F)c(C)s2)c(-c2cncc(-c3nnc(C)o3)c2)cn1 [Example 138, 1-Ethyl-3-(5′-(5-methyl-1,3,4-oxadiazol-2-yl)-4-(5-methyl-4-(trifluoromethyl)thiazol-2-yl)-3,3′-bipyridin-6-yl)urea]
The inhibition at 1 µM of the first is lower: 98% for the first, 104% for the second.

First: CCNC(=O)Nc1cc(-c2nc(C(F)(F)F)cs2)c(-c2cncc(-c3nnc(COCc4ccccc4)o3)c2)cn1 [Example 266, 1-(5′-(5-(benzyloxymethyl)-1,3,4-oxadiazol-2-yl)-4-(4-(trifluoromethyl)thiazol-2-yl)-3,3′-bipyridin-6-yl)-3-ethylurea]
Second: CCNC(=O)Nc1cc(-c2nc(C(F)(F)F)cs2)c(-c2cncc(-c3nnc(OCC)o3)c2)cn1 [Example 271, 1-(5′-(5-ethoxy-1,3,4-oxadiazol-2-yl)-4-(4-(trifluoromethyl)thiazol-2-yl)-3,3′-bipyridin-6-yl)-3-ethylurea]
The inhibition at 1 µM of the first is lower: 98% for the first, 100% for the second.

First: CCNC(=O)Nc1cc(-c2nc(C(F)(F)F)cs2)c(-c2cc(-c3nnc(C)o3)cnc2OC2CC(C)(C)N(C)C(C)(C)C2)cn1 [Example 117, 1-Ethyl-3-(5′-(5-methyl-1,3,4-oxadiazol-2-yl)-2′-(1,2,2,6,6-pentamethylpiperidin-4-yloxy)-4-(4-(trifluoromethyl)thiazol-2-yl)-3,3′-bipyridin-6-yl)urea]
Second: CCNC(=O)Nc1cc(-c2nc(C(F)(F)F)cs2)c(-c2cc(-c3n[nH]c(=O)o3)cnc2OC2C[C@H]3CC[C@@H](C2)N3C)cn1 (stereo partly shown) [Example 227]
The inhibition at 1 µM of the first is higher: 105% for the first, 100% for the second.

First: CCNC(=O)Nc1cc(-c2nnc(-c3ccccc3)o2)c(-c2ccnc(-c3n[nH]c(=O)o3)c2)cn1 [Example 192]
Second: CCNC(=O)Nc1cc(-c2nc(-c3cccc(OC)n3)cs2)c(-c2ccnc(-c3n[nH]c(=O)o3)c2)cn1 [Example 248, 1-ethyl-3-(4-(4-(6-methoxypyridin-2-yl)thiazol-2-yl)-2′-(5-oxo-4,5-dihydro-1,3,4-oxadiazol-2-yl)-3,4′-bipyridin-6-yl)urea]
The inhibition at 1 µM of the first is lower: 101% for the first, 104% for the second.

Compared with `CCNC(=O)Nc1cc(-c2nc(C(F)(F)F)cs2)c(-c2cncc(-c3nn(C)c(=O)o3)c2)cn1` [Example 140], `CCNC(=O)Nc1cc(-c2nc(C(F)(F)F)cs2)c(-c2cncc(-c3nn(CCO)c(=O)o3)c2)cn1` [Example 162] is higher in inhibition at 1 µM: 97% for the first, 98% for the second.

First: CCNC(=O)Nc1cc(-c2nc(C(F)(F)F)cs2)c(-c2cnc(OC)nc2)cn1 [Example 125]
Second: CCNC(=O)Nc1cc(-c2nc(C(F)(F)F)cs2)c(-c2ccc[n+]([O-])c2)cn1 [Example 15, 6′-(3-Ethylureido)-4′-(4-(trifluoromethyl)thiazol-2-yl)-3,3′-bipyridine 1-oxide]
The inhibition at 1 µM of the first is higher: 103% for the first, 93% for the second.

Compared with `CCNC(=O)Nc1cc(-c2nc(-c3ccccc3)cs2)c(-c2cc(-c3nnc(C)o3)cnc2CC)cn1` [Example 74], `CCNC(=O)Nc1cc(-c2nc(-c3ccccc3)cs2)c(-c2cc(-c3nnc(C)o3)nc(N3CCOCC3)c2)cn1` [Example 89, 1-ethyl-3-(2′-(5-methyl-1,3,4-oxadiazol-2-yl)-6′-morpholino-4-(4-phenylthiazol-2-yl)-3,4′-bipyridin-6-yl)urea] is lower in inhibition at 1 µM: 94% for the first, 87% for the second.

Going from `CCNC(=O)Nc1cc(-c2nc(C(F)(F)F)cs2)c(-c2cncc(-c3cnn(C)c3)c2)cn1` [Example 24, 1-Ethyl-3-(5′-(1-methyl-1H-pyrazol-4-yl)-4-(4-(trifluoromethyl)thiazol-2-yl)-3,3′-bipyridin-6-yl)urea] to `CCNC(=O)Nc1cc(-c2nc(C(F)(F)F)cs2)c(-c2cc(-c3nnc(C)o3)c[n+]([O-])c2)cn1` [Example 255, 6′-(3-ethylureido)-5-(5-methyl-1,3,4-oxadiazol-2-yl)-4′-(4-(trifluoromethyl)thiazol-2-yl)-3,3′-bipyridine 1-oxide], the inhibition at 1 µM falls from 109% to 98%.

`CCNC(=O)Nc1cc(-c2nc(C(F)(F)F)c(CNC3CCCCC3)s2)c(-c2cncc(-c3nnc(C)o3)c2)cn1` [Example 56, 1-(4-(5-((cyclohexylamino)methyl)-4-(trifluoromethyl)thiazol-2-yl)-5′-(5-methyl-1,3,4-oxadiazol-2-yl)-3,3′-bipyridin-6-yl)-3-ethylurea] and `CCNC(=O)Nc1cc(-c2nc(C(F)(F)F)c(CNCCN3CCOCC3)s2)c(-c2cncc(-c3nnc(C)o3)c2)cn1` [Example 55, 1-ethyl-3-(5′-(5-methyl-1,3,4-oxadiazol-2-yl)-4-(5-((2-morpholinoethylamino)methyl)-4-(trifluoromethyl)thiazol-2-yl)-3,3′-bipyridin-6-yl)urea] are the same in inhibition at 1 µM: 96% for the first, 96% for the second.

Going from `CCNC(=O)Nc1cc(-c2nc(C(F)(F)F)c(C(=O)NC3CCCCC3)s2)c(-c2cncc(-c3n[nH]c(=O)o3)c2)cn1` [Example 69, N-cyclohexyl-2-(6-(3-ethylureido)-5′-(5-oxo-4,5-dihydro-1,3,4-oxadiazol-2-yl)-3,3′-bipyridin-4-yl)-4-(trifluoromethyl)thiazole-5-carboxamide] to `CCNC(=O)Nc1cc(-c2nc(C(F)(F)F)cs2)c(-c2cc(-c3n[nH]c(=O)o3)cnc2OC2CCCCC2)cn1` [Example 214], the inhibition at 1 µM rises from 91% to 109%.

Going from `CCNC(=O)Nc1cc(-c2nc(-c3cccc(OC)n3)cs2)c(-c2cncc(-c3n[nH]c(=O)o3)c2)cn1` [Example 202] to `CCNC(=O)Nc1cc(-c2nc(C(F)(F)F)cs2)c(-c2cc(-c3n[nH]c(=O)o3)cnc2OCCN(C)C)cn1` [Example 100, 1-(2′-(2-(Dimethylamino)ethoxy)-5′-(5-oxo-4,5-dihydro-1,3,4-oxadiazol-2-yl)-4-(4-(trifluoromethyl)thiazol-2-yl)-3,3′-bipyridin-6-yl)-3-ethylurea], the inhibition at 1 µM rises from 43% to 98%.

Going from `CCNC(=O)Nc1cc(-c2nc(C(F)(F)F)cs2)c(-c2csc(N3CCOCC3)n2)cn1` [Example 30, 1-ethyl-3-(5-(2-morpholinothiazol-4-yl)-4-(4-(trifluoromethyl)thiazol-2-yl)pyridin-2-yl)urea] to `CCNC(=O)Nc1cc(-c2nc(C(F)(F)F)cs2)c(-c2cc(-c3nnc(C)o3)nc(N3CCOCC3)c2)cn1` [Example 87, 1-ethyl-3-(2′-morpholino-6′-(5-methyl-1,3,4-oxadiazol-2-yl)-4-(4-(trifluoromethyl)thiazol-2-yl)-3,4′-bipyridin-6-yl)urea], the inhibition at 1 µM falls from 105% to 99%.

First: CCNC(=O)Nc1cc(-c2nc(C(F)(F)F)cs2)c(-c2cc(-c3n[nH]c(=O)o3)cnc2OCCC(=O)O)cn1 [Example 111, 3-({6′-[(ethylcarbamoyl)amino]-5-(5-oxo-4,5-dihydro-1,3,4-oxadiazol-2-yl)-4′-[4-(trifluoromethyl)-1,3-thiazol-2-yl]-3,3′-bipyridin-2-yl}oxy)propanoic acid]
Second: CCNC(=O)Nc1cc(-c2nc(C(F)(F)F)cs2)c(-c2ccnc(-c3nnc([C@@H](N)C4CCCCC4)o3)c2)cn1 [Example 241, (S)-1-(2′-(5-(amino(cyclohexyl)methyl)-1,3,4-oxadiazol-2-yl)-4-(4-(trifluoromethyl)thiazol-2-yl)-3,4′-bipyridin-6-yl)-3-ethylurea]
The inhibition at 1 µM of the first is higher: 106% for the first, 97% for the second.
